Results as given in patent publication US20050197336A1 (Miikana Therapeutics Corporation, priority 2004, published 2005).

Columns and labels:
[1] = system: Histone deacetylase (HDAC), HeLa cell nuclear extract; assay: In vitro fluorescent histone deacetylase assay (Biomol kit, HeLa cell nuclear extract); assay type: biochemical; settings: compound at 100 μM; HeLa cell nuclear extract as HDAC source; substrate 50 μM; 10 min at room temperature
Protocol: Histone deacetylase (HDAC) activity assays were performed using the HDAC fluorescent activity assay/drug discovery kit (Biomol Research Laboratories, Plymouth Meeting, Pa.) essentially according to the manufacturer's instructions. The included HeLa cell nuclear extract, which contains a mosaic of HDAC enzymes and other nuclear factors, was used as the source of HDAC activity. The final substrate concentration in the assay mixture was 50 μM. The reaction was allowed to proceed for 10 min at room temperature before stopping the reaction. Test compounds were prepared as 20 mM stock solutions in DMSO (Molecular Biology grade, Sigma-Aldrich Co. St. Louis, Mo.) and stored at −70° C. Serial dilutions of test compounds were prepared in assay buffer immediately prior to testing. DMSO was determined in a separate trial to have no significant effect on the activity of this assay at concentrations up to 5%; the final DMSO concentration in the wells was no more than 2% and therefore DMSO effects were safely neglected. Assays were performed in white polystyrene 96-well half-area assay plates (Corning, Corning, N.Y.) and measured on a Wallace 1420 fluorescent plate reader (Wallac Oy, Turku, Finland) with an excitation wavelength of 355 nm, an emission wavelength of 460 nm, and a 1 sec signal averaging time.

MCF7 cells = assay: Whole cell cytotoxicity assay: Sulforhodamine B; assay type: cell-based, human; settings: Homo sapiens; compound at 100 μM; MCF7 cell growth; 48 hours with drug; SRB staining
Protocol: The following procedure can be found on the Developmental Therapeutics Program NCI/NIH web site at http://dtp.nci.nih.gov/brancehes/btb/ivclsp.html.
1. Human tumor cell lines of HT29, A549 and MCF7 are grown in DMEM containing 10% fetal bovine serum and 2 mM L-glutamine. Cells are plated in a 96 well plate at a density of 5000 cells per well in 100 μL of growth medium and incubated at 37° C., 5% CO2, for 24 hours prior to the addition of experimental compounds.
2. Experimental drugs are solubilized in DMSO for a final concentration of 20 mM immediately prior to use. Drugs are further diluted in growth media for a total of nine drug concentrations and a growth control. At the 24 hour time point, one plate of cells is fixed in situ with TCA as a measurement of the cell population at time zero, or the time of drug addition.
3. The plates are further incubated with drug for an additional 48 hours.
4. The cells are fixed in situ by gently aspirating off the culture media and then adding 50 μL of ice cold 10% TCA per well and incubated at 4° C. for 60 minutes. The plates are washed with tap water five times and allowed to air dry for 5 minute.
5. 50 μL of a 0.4% (w/v) Sulforhodamine B solution in 1% (v/v) acetic acid is added per well and incubated for 30 minutes at room temperature.
6. Following staining, plates are washed five times with 1% acetic acid to remove any unbound dye and then allowed to air dry for 5 minutes.
7. Stain is solubilized with 100 μL of 10 mM Tris pH 10.5 per well and placed on an orbital rotator for 5 minutes.
8. Absorbance is read at 570 nm.

How did the “% inhibition HDAC @ 100 μM” value [1] turn out when `CN(C)c1cccc2c(S(=O)(=O)N3CCN(c4ncc(C(=O)NO)s4)CC3)cccc12` [Example 10, 2-[4-(5-dimethylamino-naphthalene-1-sulfonyl)-piperazin-1-yl]-thiazole-5-carboxylic acid hydroxyamide] was run?
Its value is 88%.

What about the inhibition at 100 µM (MCF7 cells) of the same compound?
Its inhibition at 100 µM is 97.8%.

`O=C(NO)c1cnc(N2CCN(S(=O)(=O)c3ccc(-c4cccnc4)cc3)CC2)s1` [Example 93, 2-[4-{(3-pyrido)benzenesulfonyl}-piperazin-1-yl]-thiazole-5-carboxylic acid hydroxyamide] was tested. Which “% inhibition HDAC @ 100 μM” value [1] did it give?
Its value is 100%.

What about the inhibition at 100 µM (MCF7 cells) of the same compound?
Its inhibition at 100 µM is 92.7%.

What does the source list for `O=C(NO)c1cnc(N2CCN(S(=O)(=O)c3ccc(-c4ccc(F)cc4)cc3)CC2)s1` [Example 56, 2-{4-[(4′-fluoro-1,1′-biphenyl-4-yl)sulfonyl]piperazin-1-yl}-1,3-thiazole-5-carboxylic acid hydroxyamide]?
% inhibition HDAC @ 100 μM [1]: 98%; inhibition at 100 µM (MCF7 cells): 96.9%

`CC(C)(C)c1ccc(-c2ccc(S(=O)(=O)N3CCN(c4ncc(C(=O)NO)s4)CC3)cc2)cc1` [Example 64] was tested. Which “% inhibition HDAC @ 100 μM” value [1] did it give?
Its value is 48%.

And the inhibition at 100 µM (MCF7 cells)?
Its inhibition at 100 µM is 87%.

`CCN(CC)Cc1cccc(-c2ccc(S(=O)(=O)N3CCN(c4ncc(C(=O)NO)s4)CC3)cc2)c1.Cl` [Example 78] was tested. Which “% inhibition HDAC @ 100 μM” value [1] did it give?
Its value is 100%.

And the inhibition at 100 µM (MCF7 cells)?
Its inhibition at 100 µM is 99%.

`O=C(NO)c1cnc(N2CCN(S(=O)(=O)c3ccc([N+](=O)[O-])cc3)CC2)s1` [Example 6, 2-[4-(4-nitro-benzenesulfonyl)-piperazin-1-yl]-thiazole-5-carboxylic acid hydroxyamide] was tested. Which “% inhibition HDAC @ 100 μM” value [1] did it give?
Its value is 97%.

And the inhibition at 100 µM (MCF7 cells)?
Its inhibition at 100 µM is 95.1%.

`Cc1c(Cl)cccc1S(=O)(=O)N1CCN(c2ncc(C(=O)NO)s2)CC1` [Example 32, 2-[4-(3-chloro-2-methylphenylsulfonyl)-piperazin-1-yl]-thiazole-5-carboxylic acid hydroxyamide] was tested. Which “% inhibition HDAC @ 100 μM” value [1] did it give?
The value was 99%.

And the inhibition at 100 µM (MCF7 cells)?
The inhibition at 100 µM was 98.1%.

Which “% inhibition HDAC @ 100 μM” value [1] does the source give for `O=C(NO)c1cnc(N2CCN(S(=O)(=O)c3cccs3)CC2)s1` [Example 8, 2-[4-(thiophene-2-benzenesulfonyl)-piperazin-1-Yl]-thiazole-5-carboxylic acid hydroxyamide] here?
Its value is 98%.

What about the inhibition at 100 µM (MCF7 cells) of the same compound?
The inhibition at 100 µM was 90.1%.

Which results are given for `O=C(NO)c1cnc(N2CCN(S(=O)(=O)c3ccc(OC(F)(F)F)cc3)CC2)s1` [Example 3, 2-[4-(4-trifluoromethoxy-benzenesulfonyl)-piperazin-1-yl]-thiazole-5-carboxylic acid hydroxyamide]?
% inhibition HDAC @ 100 μM [1]: 93%; inhibition at 100 µM (MCF7 cells): 95.3%

What does the source list for `CCCc1ccc(S(=O)(=O)N2CCN(c3ncc(C(=O)NO)s3)CC2)cc1` [Example 23, 2-[4-(4-n-propylphenylsulfonyl)-piperazin-1-yl]-thiazole-5-carboxylic acid hydroxyamide]?
% inhibition HDAC @ 100 μM [1]: 99%; inhibition at 100 µM (MCF7 cells): 96.7%

With `CN1CCN(Cc2cccc(-c3ccc(S(=O)(=O)N4CCN(c5ncc(C(=O)NO)s5)CC4)cc3)c2)CC1` [Example 84] as the compound, how does the “% inhibition HDAC @ 100 μM” value [1] read?
Its value is 100%.

And the inhibition at 100 µM (MCF7 cells)?
The inhibition at 100 µM was 96.7%.

With `O=C(NO)c1cnc(N2CCN(S(=O)(=O)c3ccccc3F)CC2)s1` [Example 34, 2-[4-(2-fluorophenylsulfonyl)-piperazin-1-yl]-thiazole-5-carboxylic acid hydroxyamide] as the compound, how does the “% inhibition HDAC @ 100 μM” value [1] read?
The value was 92%.

And the inhibition at 100 µM (MCF7 cells)?
The inhibition at 100 µM was 97.7%.

`Cc1ccc(F)cc1S(=O)(=O)N1CCN(c2ncc(C(=O)NO)s2)CC1` [Example 33, 2-[4-(2-methyl-5-fluorophenylsulfonyl)-piperazin-1-yl]-thiazole-5-carboxylic acid hydroxyamide] was tested. Which “% inhibition HDAC @ 100 μM” value [1] did it give?
The value was 96%.

What about the inhibition at 100 µM (MCF7 cells) of the same compound?
The inhibition at 100 µM was 98.4%.

How did the “% inhibition HDAC @ 100 μM” value [1] turn out when `CN(C)Cc1sccc1-c1ccc(S(=O)(=O)N2CCN(c3ncc(C(=O)NO)s3)CC2)cc1` [Example 81] was run?
The value was 100%.

What about the inhibition at 100 µM (MCF7 cells) of the same compound?
The inhibition at 100 µM was 97.1%.

What does the source list for `Cl.O=C(NO)c1cnc(N2CCN(S(=O)(=O)c3ccc(-c4cccc(CN5CCCCCC5)c4)cc3)CC2)s1` [Example 77]?
% inhibition HDAC @ 100 μM [1]: 100%; inhibition at 100 µM (MCF7 cells): 98%

What does the source list for `CCN(C)Cc1cccc(-c2ccc(S(=O)(=O)N3CCN(c4ncc(C(=O)NO)s4)CC3)cc2)c1` [Example 86]?
% inhibition HDAC @ 100 μM [1]: 99%; inhibition at 100 µM (MCF7 cells): 97.8%

Which results are given for `O=C(NO)c1cnc(N2CCN(S(=O)(=O)/C=C/c3ccccc3)CC2)s1` [Example 20, 2-[4-(trans-2-phenylethanelsulfonyl)piperazin-1-yl]-thiazole-5-carboxylic acid hydroxyamide]?
% inhibition HDAC @ 100 μM [1]: 97%; inhibition at 100 µM (MCF7 cells): 97.9%

With `O=C(NO)c1cnc(N2CCN(S(=O)(=O)c3cc4ccccc4s3)CC2)s1` [Example 43] as the compound, how does the “% inhibition HDAC @ 100 μM” value [1] read?
Its value is 99%.

And the inhibition at 100 µM (MCF7 cells)?
The inhibition at 100 µM was 91%.

What does the source list for `CN(C)Cc1cccc(S(=O)(=O)N2CCN(c3ncc(C(=O)NO)s3)CC2)c1` [Example 97]?
% inhibition HDAC @ 100 μM [1]: 99%; inhibition at 100 µM (MCF7 cells): 83.9%

Which “% inhibition HDAC @ 100 μM” value [1] does the source give for `CSc1nccc(-c2ccc(S(=O)(=O)N3CCN(c4ncc(C(=O)NO)s4)CC3)s2)n1` [Example 45, 2-[4-(2-{2-methylthiopyrimidine-4-yl}-5-thiophenesulfonyl)-piperazin-1-yl]-thiazole-5-carboxylic acid hydroxyamide] here?
Its value is 95%.

And the inhibition at 100 µM (MCF7 cells)?
The inhibition at 100 µM was 78.7%.

With `CC(C)c1ccc(S(=O)(=O)N2CCN(c3ncc(C(=O)NO)s3)CC2)cc1` [Example 16, 2-[4-(4-isopropylphenylsulfonyl)-piperazin-1-yl]-thiazole-5-carboxylic acid hydroxyamide] as the compound, how does the “% inhibition HDAC @ 100 μM” value [1] read?
The value was 100%.

And the inhibition at 100 µM (MCF7 cells)?
The inhibition at 100 µM was 90.9%.

How did the “% inhibition HDAC @ 100 μM” value [1] turn out when `O=C(NO)c1cnc(N2CCN(S(=O)(=O)c3ccc(Br)s3)CC2)s1` [Example 55, 2-{4-[(5-bromothien-2-yl)sulfonyl]piperazin-1-yl}-N-hydroxy-1,3-thiazole-5-carboxamide] was run?
The value was 9%.

And the inhibition at 100 µM (MCF7 cells)?
Its inhibition at 100 µM is 0%.

Which results are given for `O=C(NO)c1cnc(N2CCN(S(=O)(=O)c3ccc(-c4cccs4)cc3)CC2)s1` [Example 65, 2-{4-[(4-thien-2-ylphenyl)sulfonyl]piperazin-1-yl}-1,3-thiazole-5-carboxylic acid hydroxamide]?
% inhibition HDAC @ 100 μM [1]: 99%; inhibition at 100 µM (MCF7 cells): 95%

Which “% inhibition HDAC @ 100 μM” value [1] does the source give for `O=C(NO)c1cnc(N2CCN(S(=O)(=O)c3ccc(-c4ccc(CN5CCCC5)s4)cc3)CC2)s1` [Example 88] here?
The value was 99%.

And the inhibition at 100 µM (MCF7 cells)?
Its inhibition at 100 µM is 93.8%.

With `COc1ccc(-c2ccc(S(=O)(=O)N3CCN(c4ncc(C(=O)NO)s4)CC3)cc2)cc1` [Example 63] as the compound, how does the “% inhibition HDAC @ 100 μM” value [1] read?
Its value is 98%.

And the inhibition at 100 µM (MCF7 cells)?
Its inhibition at 100 µM is 93.3%.

Which “% inhibition HDAC @ 100 μM” value [1] does the source give for `Cc1cccc(S(=O)(=O)N2CCN(c3ncc(C(=O)NO)s3)CC2)c1` [Example 22, 2-[4-(3-methylphenylsulfonyl)-piperazin-1-yl]-thiazole-5-carboxylic acid hydroxyamide] here?
The value was 100%.

And the inhibition at 100 µM (MCF7 cells)?
Its inhibition at 100 µM is 98%.

What does the source list for `O=C(NO)c1cnc(N2CCN(S(=O)(=O)Cc3ccccc3)CC2)s1` [Example 26, 2-[4-(benzylsulfonyl)piperazin-1-yl]-thiazole-5-carboxylic acid hydroxyamide]?
% inhibition HDAC @ 100 μM [1]: 98%; inhibition at 100 µM (MCF7 cells): 90%

`Cc1ccccc1S(=O)(=O)N1CCN(c2ncc(C(=O)NO)s2)CC1` [Example 21, 2-[4-(2-methylphenylsulfonyl)piperazin-1-yl]-thiazole-5-carboxylic acid hydroxyamide] was tested. Which “% inhibition HDAC @ 100 μM” value [1] did it give?
Its value is 100%.

And the inhibition at 100 µM (MCF7 cells)?
Its inhibition at 100 µM is 97.1%.

What does the source list for `O=C(NO)c1cnc(N2CCN(S(=O)(=O)c3ccc(-c4ccsc4CN4CCCC4)cc3)CC2)s1` [Example 82]?
% inhibition HDAC @ 100 μM [1]: 99%; inhibition at 100 µM (MCF7 cells): 92.7%

For `O=C(NO)c1cnc(N2CCN(S(=O)(=O)CCc3ccccc3)CC2)s1` [Example 94, 2-[4-(phenethylsulfonyl)-piperazin-1-yl]-thiazole-5-carboxylic acid hydroxyamide], which “% inhibition HDAC @ 100 μM” value [1] is on record?
The value was 98%.

What about the inhibition at 100 µM (MCF7 cells) of the same compound?
Its inhibition at 100 µM is 90.6%.

With `Cc1ccc(S(=O)(=O)N2CCN(c3ncc(C(=O)NO)s3)CC2)cc1F` [Example 40, 2-[4-(3-fluoro-4-methylphenylsulfonyl)-piperazin-1-yl]-thiazole-5-carboxylic acid hydroxyamide] as the compound, how does the “% inhibition HDAC @ 100 μM” value [1] read?
Its value is 100%.

What about the inhibition at 100 µM (MCF7 cells) of the same compound?
Its inhibition at 100 µM is 99.1%.
